Source: patent US10238635B2, “N-carbamoylated urethane for treating a neuroinflammatory disease” (Kyungpook National University Industry—Academic Cooperation …, priority 2016, dated 2019)
Entries after “also recorded” stand apart in the source; their conditions may differ.

Experiments:
BV-2 microglial cells [1] = experiment: LPS-induced NO production in BV-2 microglial cells (Griess, nitrite); format: cell-based, murine; conditions: LPS 100 ng/ml; for inhibition at 10 µM: Mus musculus, BV-2 microglial cells, 10 μM compound, LPS-increased NO production = 100%
Experimental: (§1) BV-2 cells, a murine microglial cell line, were cultured in Dulbecco's modified Eagle's medium (DMEM) containing 5% heat-inactivated FBS and 50 μg/ml gentamicin at 37° C. Rat microglial HAPI cells and mouse primary astrocytes were cultured in DMEM (10% FBS, 10 U/ml penicillin, 10 μg/ml streptomycin) at 37° C. All animals and experimental procedures were approved by the Institutional Review Board of Kyungpook National University School of Pharmacy and were carried out in accordance with the NIH Guide for the Care and Use of Laboratory Animals. All animals were maintained under temperature- and humidity-controlled conditions.
(§2) The production of nitric oxide (NO) was estimated by measuring the amount of nitrite, which is a NO metabolite. The BV-2 cells (40,000 cells/well in 96-well plates) were treated with 100 ng/ml of LPS in the presence or absence of the compounds from the library. At the end of a 24 hour incubation period, 50 μl of the cell culture media was mixed with an equal volume of a Griess reagent in each well. The light absorbance was measured at 540 nm, while a standard curve was generated using sodium nitrite.
(§3) Specifically, the BV-2 cells were cultured in 96-well plates and stimulated with LPS at a concentration of 100 ng/ml. The BV-2 cells stimulated with LPS were treated with 3,500 low molecular weight substances (FIG. 1).
While an increased NO production by LPS is designated as 100%, a suppressed amount of NO production by each derivative of Compound 1 is presented by its respective percentage.

BV-2 cells = experiment: Cell viability, MTT assay; format: cell-based, murine
Experimental: Cell viability was assessed using MTT assay. After treatment with LPS and the compounds, the culture solution was aspirated and removed. MTT (0.5 mg/ml in PBS) was added to the cells and incubated at 37° C. for 4 hours. The resulting formazan was dissolved in DMSO. The absorbance was determined at 570 nm using a microplate reader.
as §3

[2] = system: HAPI rat microglial cells; experiment: LPS-induced NO release in HAPI cells; format: cell-based; conditions: various concentrations, 24 hours
Experimental: as §1
(§4) The present inventors confirmed the anti-neuroinflammatory effect of Compound 1, which was identified in Example 1, in the HAPI rat microglial cells and the RAW264.7 macrophage cells. The cells were cultured in 96-well plates, followed by treatment with various concentrations of Compound 1 with LPS, respectively. After 24 hours of such a treatment, NO release was examined.

[3] = system: RAW264.7 macrophage cells; experiment: LPS-induced NO release in RAW264.7 cells; format: cell-based; conditions: various concentrations, 24 hours
Experimental: as §4

BV-2 microglial cells [4] = experiment: RT-PCR of LPS-induced pro-inflammatory gene expression in BV-2 cells; format: cell-based, murine; conditions: pre-treatment
Experimental: (§5) Total RNA was extracted from microglial cells or brain tissues using TRIZOL reagent (Invitrogen, Carlsbad, Calif., USA). Reverse transcription (RT) was performed using Superscript II reverse transcriptase (Invitrogen) and Oligo (dT) primers. Traditional polymerase chain reaction (PCR) amplification was performed using specific primer sets at annealing temperature 55-60° C. for 20-30 cycles. PCR was performed using C1000 Touch Thermal Cycler. For the PCR product analysis, 10 μl of each PCR reaction was electrophoresed on 1% agarose gel and detected under ultraviolet light.
(§6) Real-time RT-PCR was performed using Perfect Real-Time One Step SYBR Primer Script RT-PCR Kit (Takara Bio, Otsu, Shiga, Japan).
The primer sequences were designed based on published cDNA sequences (See Table 1).
Next, the effect of Compound 1 on the LPS-induced expression of pro-inflammatory mediators was examined in the BV-2 microglial cells.

astrocytes = experiment: NO, TNF-α production and Ym-1 expression in astrocytes; format: cell-based, mouse
Experimental: as §1
The mouse primary microglial cells were cultured under mild conditions according to known methods. In brief, the forebrains of 3-5 day-old C57BL/6 mice were harvested and mechanically pulverized using a nylon mesh. The cells were seeded onto a poly-L-lysine-coated flasks and then cultured. After in vitro culture of 10-14 days, the microglial cells were isolated from the mixed glial cultures by shaking for 6 hours at 200 rpm. Astrocytes remained attached to the bottom of the culture flask were used for the following experiments. 3. High Throughput Screening
as §2, with “At the end of a 24 hour incubation period, 50 μl of the cell culture media was mixed with an equal volume of a Griess reagent in each well.” left out
The BV-2 cells or astrocytes were treated with LPS and Compound 1, followed by culturing for 24 hours. The TNF-α levels in the culture media were measured using a rat monoclonal anti-mouse TNF-α antibody as a primary antibody and a goat anti-mouse TNF-α antibody as a secondary antibody.
Total RNA was extracted from microglial cells or brain tissues using TRIZOL reagent (Invitrogen, Carlsbad, Calif., USA). […] For the PCR product analysis, 10 μl of each PCR reaction was electrophoresed on 1% agarose gel and detected under ultraviolet light. […]

[5] = Brain distribution and half-life after intraperitoneal administration; format: in vivo; conditions: 2 mg/kg, previous study by the inventors
[6] = system: LPS-induced mouse neuroinflammation model; experiment: LPS-induced mouse neuroinflammation model (Iba-1 immunostaining, real-time RT-PCR of brain); format: in vivo, C57BL/6 mice; conditions: 72 h after LPS
Experimental: as §5, §6
LPS was intraperitoneally administered according to a conventionally known method for producing neuroinflammatory mouse model. All experiments were performed on C57BL/6 mice aged 9-11 weeks, and the animals were supplied from Koatech. In each experiment, the animals were divided into four groups (Group 1, vehicle-treated group; Group 2, Compound 1-treated group; Group 3, LPS & vehicle-treated group; Group 4, LPS & Compound 1-treated group). Compound 1 (2 mg/kg) was dissolved in saline containing 5% DMSO and 40% polyethylene glycol and administered intraperitoneally daily for 4 days. LPS (5 mg/kg) induced a neuroinflammatory animal model by intraperitoneally administering its single dose on the second day.
For histological analysis, 72 hours after the administration of LPS, the animals were anesthetized and perfused transcardially first with saline and then with 4% paraformaldehyde. The activity of microglial cells was evaluated using Iba-1 staining. At least three animals were included in each experimental group. […]
The mice were then sacrificed, and the Iba-1 levels were analyzed as molecular markers of microglia activation (FIG. 6B).
The Iba-1-stained cells whose intensity values were above an arbitrarily defined threshold were counted from each of three brain regions, including the cortex, hippocampus, and substantia nigra.

[7] = 2 mg/kg i.p., LPS 5 mg/kg, real-time RT-PCR

`CCC(OC(=O)N(Cc1ccccc1)C(=O)Nc1ccccc1OC)c1cc(-c2ccc(OC(C)(C)C(=O)O)cc2)no1` (centres unmarked) [Compound 2-methoxy, 2-(4-(5-(1-((benzyl((2-methoxyphenyl)carbamoyl)carbamoyl)oxy)propyl)isoxazol-3-yl)phenoxy)-2-methylpropanoic acid] showed an inhibition at 10 µM (BV-2 microglial cells [1]) of 20.9%.

`CCCCc1ccc(NC(=O)N(Cc2ccccc2)C(=O)OC(CC)c2cc(-c3ccc(OC(C)(C)C(=O)O)cc3)no2)cc1` (centres unmarked) [Compound 4-n-butyl, 2-(4-(5-(1-((benzyl((4-n-butylmethylphenyl)carbamoyl)carbamoyl)oxy)propyl)isoxazol-3-yl)phenoxy)-2-methylpropanoic acid] gave an inhibition at 10 µM (BV-2 microglial cells [1]) of 58.3%.

`CCC(OC(=O)N(Cc1ccccc1)C(=O)Nc1ccc(Cl)cc1)c1cc(-c2ccc(OC(C)(C)C(=O)O)cc2)no1` (centres unmarked) [Compound 4-chloro] showed an inhibition at 10 µM (BV-2 microglial cells [1]) of 67.8%.

Molecule `CCC(OC(=O)N(Cc1ccccc1)C(=O)Nc1ccc(C(F)(F)F)cc1)c1cc(-c2ccc(OC(C)(C)C(=O)O)cc2)no1` (centres unmarked) [4-trifluoromethyl, 2-(4-(5-(1-((benzyl((4-trifluoromethylphenyl)carbamoyl)carbamoyl)oxy)propyl)isoxazol-3-yl)phenoxy)-2-methylpropanoic acid] has an inhibition at 10 µM (BV-2 microglial cells [1]) of 52.7%.

For `CCC(OC(=O)N(Cc1ccccc1)C(=O)Nc1ccc(OC)cc1)c1cc(-c2ccc(OC(C)(C)C(=O)O)cc2)no1` (centres unmarked) [Compound 4-methoxy, 2-(4-(5-(1-((benzyl((4-methoxyphenyl)carbamoyl)carbamoyl)oxy)propyl)isoxazol-3-yl)phenoxy)-2-methylpropanoic acid], the inhibition at 10 µM (BV-2 microglial cells [1]) was 46.7%.

Molecule `CCC(OC(=O)N(Cc1ccccc1)C(=O)Nc1cccc(OC)c1)c1cc(-c2ccc(OC(C)(C)C(=O)O)cc2)no1` (centres unmarked) [Compound 3-methoxy, 2-(4-(5-(1-((benzyl((3-methoxyphenyl)carbamoyl)carbamoyl)oxy)propyl)isoxazol-3-yl)phenoxy)-2-methylpropanoic acid] has an inhibition at 10 µM (BV-2 microglial cells [1]) of 25.6%.

Work on `CCC(OC(=O)N(Cc1ccccc1)C(=O)Nc1cc(OC)cc(OC)c1)c1cc(-c2ccc(OC(C)(C)C(=O)O)cc2)no1` (centres unmarked) [3,5-dimethoxy] yielded an inhibition at 10 µM (BV-2 microglial cells [1]) of 56.7%.

For `CCC(OC(=O)N(Cc1ccccc1)C(=O)Nc1ccc2c(c1)OCO2)c1cc(-c2ccc(OC(C)(C)C(=O)O)cc2)no1` (centres unmarked) [3,4-methylenedioxy], the inhibition at 10 µM (BV-2 microglial cells [1]) was 74.6%.

In the case of `CCC(OC(=O)N(Cc1ccccc1)C(=O)Nc1ccccc1)c1cc(-c2ccc(OC(C)(C)C(=O)O)cc2)no1` (centres unmarked) [Compound 1, 2-(4-(5-(1-((benzyl(phenylcarbamoyl)carbamoyl)oxy)propyl)isoxazol-3-yl)phenoxy)-2-methylpropanoic acid], the “inhibition of NO production in microglial cells (high-throughput screening)” value (BV-2 microglial cells [1]; BV-2 cells) was “effectively inhibiting NO production”, the inhibition at 10 µM (BV-2 microglial cells [1]) was 73.4% and the cytotoxicity (BV-2 cells) was “low in cytotoxicity”. The “LPS-induced NO release” value [2] was “inhibits the LPS-induced NO release in the microglial and macrophage cells in a dose-dependent manner”, the “LPS-induced NO release” value [3] was “inhibits the LPS-induced NO release in the microglial and macrophage cells in a dose-dependent manner” and the “expression of IL-1β gene” value (BV-2 microglial cells [4]) was “significantly reduced”. For the same molecule, the “expression of TNF-α gene” value (BV-2 microglial cells [4]) was “significantly reduced”, the “expression of iNOS gene” value (BV-2 microglial cells [4]) was “significantly reduced” and the “IL-4-induced Ym-1 expression in astrocytes” value (astrocytes; IL-4) was “increasing”. The “LPS-induced NO production in astrocytes” value (astrocytes; LPS) was “inhibited”, the “LPS-induced TNF-α production in astrocytes” value (astrocytes; LPS) was “inhibited” and the brain distribution [5] was 0.19 µg/h/mL. For the same molecule, the half-life ([5]; brain, ip) was 5.23 h, the “LPS-induced microglial activation (Iba-1 positive cells)” value ([6]; 2 mg/kg i.p. daily for 4 days, LPS 5 mg/kg i.p., cortex, hippocampus, substantia nigra) was “significantly reduced; also recorded: effectively blocked” and the “expression level of IL-1β mRNA in brain” value [6, 7] was “significantly diminished”. The “expression level of TNF-α mRNA in brain” value [6, 7] was “significantly diminished”.

Work on `CCC(OC(=O)N(Cc1ccccc1)C(=O)Nc1ccc(C)cc1)c1cc(-c2ccc(OC(C)(C)C(=O)O)cc2)no1` (centres unmarked) [Compound 4-methyl, 2-(4-(5-(1-((benzyl((4-methylphenyl)carbamoyl)carbamoyl)oxy)propyl)isoxazol-3-yl)phenoxy)-2-methylpropanoic acid] yielded an inhibition at 10 µM (BV-2 microglial cells [1]) of 46.7%.

`CCC(OC(=O)N(Cc1ccccc1)C(=O)Nc1ccc(OC)c(OC)c1)c1cc(-c2ccc(OC(C)(C)C(=O)O)cc2)no1` (centres unmarked) [3,4-dimethoxy, 2-(4-(5-(1-((benzyl((3,4-dimethoxymethylphenyl)carbamoyl)carbamoyl)oxy)propyl)isoxazol-3-yl)phenoxy)-2-methylpropanoic acid] gave an inhibition at 10 µM (BV-2 microglial cells [1]) of 60.7%.
